PubChem BioAssay (NCI)
Several values for one entry are separate records, joined by “and”; a condition that tells them apart may be missing. Identical values can stand only once.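 Test compounds were applied to cells in 96-well plates for 48 hours at 5 doses. The concentration for 50% growth inhibition is given as GI50. TGI is the concentration that stops growth completely.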 Where a SMILES comes first, the peptide text is derived from it. [ ]: non-standard residue; d: D form. The star is where a group is joined. Phe(4-NO2) = N[CH](Cc1ccc([N+](=O)[O-])cc1)C(=O)O; Boc = CC(C)(C)OC(=O)*; OtBu = CC(C)(C)O*

Tests used:
Test in all cases: NCI-60 cell line screen, 48 h
[1] = test system: SW-620 colon
[2] = test system: 786-0 renal
[3] = test system: RPMI-8226 leukemia
[4] = test system: NCI-H226 lung
[5] = test system: M19-MEL melanoma
[6] = test system: SNB-19 CNS
[7] = test system: HCC-2998 colon
[8] = test system: A549 NSCLC
[9] = test system: HCT-15 colon
[10] = test system: MDA-MB-231 breast

SMILES	TGI [1]	TGI [2]	TGI [3]	TGI [4]	TGI [5]	TGI [6]	TGI [7]	TGI [8]	TGI [9]	GI50 [1]	GI50 [3]	GI50 [4]	GI50 [6]	GI50 [7]	GI50 [9]	TGI [10]	GI50 [10]	GI50 [5]	GI50 [8]
O=C(CCN1CCCCC1CO)Nc1ccc2c(c1)C(=O)c1ccc(NC(=O)CCN3CCCCC3CO)cc1C2=O (centres undefined)	27 µM	6.58 µM	48 µM	52.5 µM	29.3 µM	31.2 µM	20.8 µM	82.4 µM	54 µM	–	–	–	–	–	–	–	–	–	–
COc1ccc(CC2C(=O)NC(C)C(=O)N(C)C3Cc4ccc(cc4)Oc4cc(ccc4O)CC(C(=O)NC(C)C(=O)NC(C)C(=O)N2C)N(C)C3=O)cc1 (centres undefined)	–	–	0.0327 µM and 0.0179 µM	0.624 µM	0.0192 µM	–	0.0168 µM and 0.0292 µM	0.193 µM and 0.599 µM and 0.306 µM	14.9 µM	0.000157 µM	< 0.0001 µM	0.00929 µM	< 0.0001 µM	< 0.0001 µM	1.27 µM	0.0671 µM	–	–	–
C=C1C(=O)C[C@@]23CCC[C@@]12CC(O)C3 (some centres undefined)	37.2 µM	–	61.3 µM	45.8 µM	> 70.2 µM	> 100 µM	> 62.1 µM	> 100 µM	28.8 µM	–	–	–	–	–	–	–	–	–	–
COC(=O)CNC(=O)/C=C/[C@H](O[Si](C)(C)C(C)(C)C)[C@H](/C=C/C(=O)NCC(=O)OC)O[Si](C)(C)C(C)(C)C	> 25 µM	> 25 µM	> 25 µM	> 25 µM	–	> 25 µM	> 25 µM	> 25 µM	> 25 µM	–	–	–	–	–	–	> 25 µM	–	–	–
COc1cc(/C=C2\C[C@H]3[C@@H]4CC=C5C[C@@H](N6CCCC6)CC[C@]5(C)[C@H]4CC[C@]3(C)[C@H]2OC(C)=O)cc(OC)c1OC	34.7 µM	23.3 µM	29.6 µM	48.3 µM	–	34.2 µM	10.4 µM	32 µM	25.1 µM	–	–	–	–	–	–	29.8 µM	–	–	–
C=CCN1C(=O)/C(=C/c2ccc(Cl)cc2)N=C1SC1OC(COC(C)=O)C(OC(C)=O)C(OC(C)=O)C1OC(C)=O (centres undefined)	> 100 µM	12.6 µM	> 100 µM and 46.8 µM	24.5 µM and 78 µM	–	87.6 µM	> 100 µM and 42.8 µM	65.7 µM	> 100 µM	> 59.6 µM and 11.1 µM	11.2 µM and 5.19 µM	9.63 µM and 21.9 µM	–	49.7 µM and 18.9 µM	41.1 µM and 16 µM	43.6 µM and 80.9 µM	7.84 µM and 23.6 µM	–	–
CN1C/C(=C\c2ccccc2[N+](=O)[O-])C(=O)/C(=C/c2ccccc2[N+](=O)[O-])C1	0.886 µM and 0.603 µM	1.01 µM and 0.467 µM	–	16.3 µM	–	16.6 µM and 19.2 µM	5.52 µM and 3.01 µM	14.4 µM and 12.9 µM	0.527 µM and 0.696 µM	0.292 µM	0.592 µM and 0.116 µM	–	–	2.26 µM	–	0.911 µM	0.284 µM	–	–
CC(=O)c1c(O)c(C)c(O)c2c1OC1=CC(=O)C(C(C)=O)C(=O)C12C (centres undefined)	41.3 µM and 86 µM	–	24.2 µM and 49.7 µM	20.6 µM and 60.2 µM	44.4 µM and 79.3 µM	18.2 µM and 44.5 µM	17.1 µM and 22.8 µM	25.1 µM and 48.4 µM	27.6 µM and 60.4 µM	6.44 µM and 27.5 µM	3.88 µM and 9.02 µM	6.93 µM and 18.3 µM	4.26 µM and 12.4 µM	6.08 µM and 13.7 µM	5.23 µM and 16.6 µM	–	–	5.4 µM and 24.9 µM	3.77 µM and 13.8 µM
CCOP(=O)(OCC)C(F)(F)CC1CCCCC1	> 10 µM	> 10 µM	> 10 µM	> 10 µM	–	> 10 µM	> 10 µM	> 10 µM	> 10 µM	–	–	–	–	–	–	> 10 µM	–	–	–
COc1ccc(C=O)cc1Oc1ccc(C[C@H]2c3c(cc(OC)c4c3Oc3cc5c(cc3O4)CCN(C)C5=O)CCN2C)cc1	30.9 µM	16.3 µM	14.3 µM	16.8 µM	–	30.2 µM	15.1 µM	> 50 µM	27.5 µM	–	–	–	–	–	–	14.6 µM	–	–	–
CN1C(=O)[C@@]2(C=CC3(CC2)OCCO3)c2ccccc21	> 50 µM	> 50 µM	> 50 µM	> 50 µM	–	> 50 µM	> 50 µM	> 50 µM	> 50 µM	–	–	–	–	–	–	> 50 µM	–	–	–
COc1cc2cc3c4c(cc(OC)c(OC)c4c2cc1OC)CCN3C(=O)OCCBr	> 100 µM	> 100 µM	–	2.42 µM	> 100 µM	> 100 µM	> 100 µM	> 100 µM	> 100 µM	–	–	–	–	–	–	–	–	–	–
C=CCOn1c(C=C)nc2c(C)cccc21	11.2 µM	5.83 µM	17.1 µM	16.9 µM	–	21.5 µM	17.8 µM	14.4 µM	13.9 µM	–	–	–	–	–	–	14.8 µM	–	–	–
CN(Cc1nc2c(N)nc(N)nc2nc1N)c1ccc(C(=O)NC(CCC(=O)O)C(=O)O)cc1 (centres undefined)	> 100 µM	> 100 µM	> 100 µM	> 100 µM	–	> 100 µM	> 100 µM	> 100 µM	> 100 µM	–	–	–	–	–	–	> 100 µM	–	–	–
Cc1cnc2[nH]c(-c3ccccc3)cc(=O)c2c1	> 100 µM	> 100 µM	> 8.62 µM	9.69 µM	–	> 100 µM	1.96 µM	> 100 µM	1.41 µM	–	–	–	–	–	–	> 100 µM	–	–	–
CCC1(O)CN(CCOC)[C@H]2C[C@@H]1C(=O)c1[nH]c3ccccc3c12 (some centres undefined)	> 100 µM	> 100 µM	> 100 µM	> 100 µM	–	> 100 µM	> 100 µM	> 100 µM	> 100 µM	–	–	–	–	–	–	> 100 µM	–	–	–
CCOc1cc(C=O)ccc1O	> 100 µM	> 100 µM	> 100 µM	> 100 µM	–	> 100 µM	> 100 µM	> 100 µM	> 100 µM	–	–	–	–	–	–	> 100 µM	–	–	–
COC(=O)C(Cc1ccc([N+](=O)[O-])cc1)NC(=O)C(CC(=O)OC(C)(C)C)NC(=O)OC(C)(C)C (centres undefined) (Boc-Asp(OtBu)-[Phe(4-NO2)]-OMe; configuration not given here)	> 100 µM	> 100 µM	> 100 µM	> 100 µM	–	> 100 µM	> 100 µM	> 100 µM	> 100 µM	–	–	–	–	–	–	68.4 µM	–	–	–
CN(C)CCn1c(=O)c2ccc(NCCNCCO)c3c(=O)c4cc(O)ccc4n(c1=O)c23	11.2 µM	13.2 µM	8.43 µM	5.71 µM	–	10.8 µM	2.18 µM	33.9 µM	53.8 µM	–	–	–	–	–	–	3.37 µM	–	–	–
CCN(CC)c1ccc(C(=C2C=CC(=[N+](CC)CC)C=C2)c2ccccc2)cc1	0.138 µM	0.151 µM	0.0683 µM	0.0683 µM	0.158 µM	0.179 µM	0.135 µM	–	0.587 µM	–	–	–	–	–	–	–	–	–	–
COc1cc(C2S/C(=C/c3ccccc3)C(=O)N2c2ccc(Cl)cc2)cc(OC)c1OC (centres undefined)	> 100 µM	> 100 µM	> 100 µM	> 100 µM	–	> 100 µM	> 100 µM	> 100 µM	> 100 µM	–	–	–	–	–	–	> 96.6 µM	–	–	–
O=C(O)c1ccc(Nc2cnc3ccc(C(F)(F)F)cc3n2)cc1	46.6 µM	> 100 µM	48 µM	29.4 µM	–	33.7 µM	19.6 µM	30.8 µM	36.8 µM	–	–	–	–	–	–	36.9 µM	–	–	–
O=C(O)CNC(=O)c1cccc2c(=O)c3ccccc3[nH]c12	> 100 µM	> 100 µM	> 100 µM	> 100 µM	–	> 100 µM	> 100 µM	> 100 µM	> 100 µM	–	–	–	–	–	–	> 100 µM	–	–	–
